System: Human umbilical vein endothelial cells (HUVEC)
Test: alamarBlue viability assay in HUVECs
Format: cell-based
Conditions: 72 h
Protocol: Human umbilical vein endothelial cells (HUVEC), the growth medium EGM and the basal medium EBM was obtained from Lonza. Additional FCS for the starving medium was used form Invitrogen.
The viability assay with alamarBlue® from Invitrogen was done in 96 well gelatin coated plates from BD.
The tested compounds were dissolved in DMSO at a stock concentration of 10 mM.
VEGF-A165 was obtained from R&D Systems® and has been dissolved at a stock concentration of 100 ug/ml in PBS.
HUVECs cells were maintained in Endothial growth medium (EGM) until Passage 5. For the viability assay HUVECs have been seeded in EBM with 0.5% FCS on gelatin coated 96 well plates at a cell density of 11.000 cells/well. Outer wells were left free and have been filled with medium afterwards. Cells were incubated overnight in a cell culture incubator at 37° C. with 5% CO2. Compounds and VEGF have been diluted in EBM/0.5% FCS to a 20× working concentration. 5 ul of the 20× pre-dilution have been added to the cells. HUVECs which have to be intended to grow under hypoxia conditions have been transferred to a cell culture incubator with 1% O2, 5% CO2 and 37° C. HUVECs grown under normoxia conditions were incubated in a normal cell culture incubator. After 72 h, 11 ul of alamarBlue® have been added to each well of the cells subsequently incubated for 4 h in the cell culture incubator. The absorbance has been detected at 570 nm with a reference wavelength of 600 nm.

| Molecule | alamarBlue assay OD 570 nm-600 nm (4.1 nM, hypoxia) | alamarBlue assay OD 570 nm-600 nm (4.1 nM, normoxia) | alamarBlue assay OD 570 nm-600 nm (10.2 nM, hypoxia) | alamarBlue assay OD 570 nm-600 nm (10.2 nM, normoxia) | alamarBlue assay OD 570 nm-600 nm (25.6 nM, hypoxia) | alamarBlue assay OD 570 nm-600 nm (25.6 nM, normoxia) | alamarBlue assay OD 570 nm-600 nm (64 nM, hypoxia) | alamarBlue assay OD 570 nm-600 nm (64 nM, normoxia) | alamarBlue assay OD 570 nm-600 nm (160 nM, hypoxia) | alamarBlue assay OD 570 nm-600 nm (160 nM, normoxia) | alamarBlue assay OD 570 nm-600 nm (400 nM, hypoxia) | alamarBlue assay OD 570 nm-600 nm (400 nM, normoxia) | alamarBlue assay OD 570 nm-600 nm (1000 nM, hypoxia) | alamarBlue assay OD 570 nm-600 nm (1000 nM, normoxia) | alamarBlue assay OD 570 nm-600 nm (2500 nM, hypoxia) | alamarBlue assay OD 570 nm-600 nm (2500 nM, normoxia) | effect on viability of HUVECs (hypoxia) | effect on viability of HUVECs (normoxia) | also measured |
| --- | --- | --- | --- | --- | --- | --- | --- | --- | --- | --- | --- | --- | --- | --- | --- | --- | --- | --- | --- |
| Cc1cc(C)c2c(c1)[C@@H](N(Cc1cc(C(F)(F)F)cc(C(F)(F)F)c1)c1nnn(C)n1)CCCN2C[C@H]1CC[C@H](C(=O)O)CC1 [Evacetrapib, Trans-4-({(5S)-5-[{[3,5-bis(trifluoromethyl)phenyl]methyl}(2-methyl-2H-tetrazol-5-yl)amino]-7,9-dimethyl-2,3,4,5-tetrahydro-1H-benzazepin-1-yl}methyl) cydohexanecarboxylic acid] | 0.0141 | 0.0032 | 0.0129 | 0.0158 | 0.0131 | 0.0164 | 0.0076 | 0.0051 | 0.0168 | 0.0227 | 0.0403 | 0.0103 | 0.0564 | 0.0191 | −0.1084 | −0.0107 | negative effect on the cell viability | no influence of viability could be detected |  |
| CCOC(=O)N1c2ccc(C(F)(F)F)cc2[C@@H](N(Cc2cc(C(F)(F)F)cc(C(F)(F)F)c2)C(=O)OC)C[C@H]1CC [Torcetrapib, [2R, 4S] 4-[(3,5-bis-trifluoromethyl-benzyl)-methoxycarbonyl-amino]-2-ethyl-6-trifluoromethyl-3,4-dihydro-2H-quinoline-1-carboxylic acid ethyl ester] | 0.0129 | 0.0020 | 0.0200 | −0.0004 | 0.0118 | 0.0160 | 0.0111 | 0.0007 | 0.0137 | 0.0194 | 0.0308 | 0.0152 | −0.0388 | 0.0001 | −0.0784 | 0.0138 | negative effect on the cell viability | no influence of viability could be detected |  |
| COc1cc(F)c(C(C)C)cc1-c1ccc(C(F)(F)F)cc1CN1C(=O)O[C@H](c2cc(C(F)(F)F)cc(C(F)(F)F)c2)[C@@H]1C [Anacetrapib, (4S,5R)-5-[3,5-bis(trifluoromethyl)phenyl]-3-({2-[4-fluoro-2-methoxy-5-(propan-2-yl)phenyl]-5-(trifluoromethyl)phenyl}methyl)-4-methyl-1,3-oxazolidin-2-one] | 0.0003 | 0.0096 | 0.0065 | 0.0170 | 0.0014 | 0.0203 | 0.0093 | 0.0119 | −0.0022 | 0.0168 | 0.0260 | 0.0352 | 0.0565 | 0.0662 | 0.0814 | 0.0846 | positive effect on viability, albeit with lower efficacy | positive effect of viability |  |
| VEGF |  |  |  |  |  |  |  |  |  |  |  |  |  |  |  |  |  |  | viability measured at 570 nm (alamarBlue) (VEGF 1.2 ng/ml, hypoxia): 0.0480; viability measured at 570 nm (alamarBlue) (VEGF 1.2 ng/ml, normoxia): 0.0268; viability measured at 570 nm (alamarBlue) (VEGF 2.3 ng/ml, hypoxia): 0.0679; viability measured at 570 nm (alamarBlue) (VEGF 2.3 ng/ml, normoxia): 0.0394; viability measured at 570 nm (alamarBlue) (VEGF 4.7 ng/ml, hypoxia): 0.0983; viability measured at 570 nm (alamarBlue) (VEGF 4.7 ng/ml, normoxia): 0.0582; viability measured at 570 nm (alamarBlue) (VEGF 9.4 ng/ml, hypoxia): 0.1114; viability measured at 570 nm (alamarBlue) (VEGF 9.4 ng/ml, normoxia): 0.0908; viability measured at 570 nm (alamarBlue) (VEGF 18.8 ng/ml, hypoxia): 0.1039; viability measured at 570 nm (alamarBlue) (VEGF 18.8 ng/ml, normoxia): 0.1265; viability measured at 570 nm (alamarBlue) (VEGF 37.5 ng/ml, hypoxia): 0.0927; viability measured at 570 nm (alamarBlue) (VEGF 37.5 ng/ml, normoxia): 0.1449; viability measured at 570 nm (alamarBlue) (VEGF 75 ng/ml, hypoxia): 0.0906; viability measured at 570 nm (alamarBlue) (VEGF 75 ng/ml, normoxia): 0.1642; viability measured at 570 nm (alamarBlue) (VEGF 150 ng/ml, hypoxia): 0.0825; viability measured at 570 nm (alamarBlue) (VEGF 150 ng/ml, normoxia): 0.1618; survival signal in HUVECs in response to VEGF-A165 (normoxia and hypoxia): dose dependent survival signal |

From patent US20170035708A1, “USE OF N-(4-TERT-BUTYLBENZYL)-3-CHLORO-N-[2-(4-CHLORO-3-ETHYL-PHENYL)-ETHYL]-2-FLUORO-5-TRIFLUOROMETHYL-BENZAMIDE FOR THE TREATMENT OF EYE DISEASES” (Hoffmann-La Roche Inc., priority 2013, published 2017)
